{
  "source": "patent US20250143305A1",
  "about": "“PYRAZOLE COMPOUND AND PEST CONTROL AGENT CONTAINING THE SAME AS ACTIVE INGREDIENT” (MITSUI CHEMICALS CROP & LIFE SOLUTIONS, INC., priority 2022, published 2025)",
  "assay_type_in_all_cases": "in vivo",
  "key": {"Nilaparvata lugens [1]": {"test_system": "Nilaparvata lugens", "experiment": "Insecticidal test against Nilaparvata lugens, spray on rice seedling", "conditions": "144 h, acetone solution sprayed on rice seedling, 10 young larvae, 25° C., after 6 days, read-out: mortality rate", "protocol": "(§1) Insecticidal Test Against Nilaparvata lugens\n(§2) 2.5 ml of an acetone solution prepared to have a predetermined concentration of the test compound was sprayed on a rice (Oryza sativa) seedling, and the rice seedling was transferred to a glass tube in which water was retained. After air drying, 10 young larvae were released into the glass tube, and the glass tube was covered with a sponge stopper. The glass tube was allowed to stand in a thermostatic chamber at 25° C., and the numbers of living insects and dead insects were examined after 6 days."}, "Myzus persicae [2]": {"test_system": "Myzus persicae", "experiment": "Insecticidal test against Myzus persicae, root part of radish seedling immersed", "conditions": "120 h, 2% acetone aqueous solution, 25 young larvae, 25° C., after 5 days, read-out: mortality rate", "protocol": "(§3) Insecticidal Test Against Myzus persicae\n12.5 ml of a 2% acetone aqueous solution in which the test compound was adjusted to a predetermined concentration was placed in a container, and a root part of a young radish (Raphanus sativus) seedling that was fixed with a sponge and parasitized with 25 young larvae was immersed. The container was allowed to stand in a thermostatic chamber at 25° C., and the numbers of living insects and dead insects were examined after 5 days."}, "Sogatella furcifera": {"test_system": "Sogatella furcifera", "experiment": "Insecticidal test against Sogatella furcifera, spray on rice seedling", "conditions": "144 h, acetone solution sprayed on rice seedling, 10 young larvae, 25° C., after 6 days, read-out: mortality rate", "protocol": "Insecticidal Test Against Sogatella furcifera\nas §2"}, "Myzus persicae [3]": {"test_system": "Myzus persicae", "experiment": "Insecticidal test against Myzus persicae, spray on radish leaves", "conditions": "120 h, 20% acetone aqueous solution sprayed on radish leaves, 25 young larvae, 25° C., after 5 days, read-out: mortality rate", "protocol": "as §3\n2.5 ml of a 20% acetone aqueous solution prepared to have a predetermined concentration of the test compound was sprayed on the leaves of radish (Raphanus sativus) in which the roots retained water and 25 young larvae were parasitized. After air drying, it was allowed to stand in a thermostatic chamber at 25° C., and the number of living insects and the number of dead insects were examined after 5 days."}, "Nilaparvata lugens [4]": {"test_system": "Nilaparvata lugens", "experiment": "Insecticidal test against Nilaparvata lugens, root part of rice seedling immersed", "conditions": "144 h, 2% acetone aqueous solution, 10 young larvae, 25° C., after 6 days, read-out: mortality rate", "protocol": "as §1\n12.5 ml of a 2% acetone aqueous solution in which the test compound was adjusted to a predetermined concentration was placed in a container, and a root part of a rice (Oryza sativa) seedling fixed with a sponge and a plastic cylinder was immersed. 10 young larvae were released into the container, and the container was covered with a plastic lid. The container was allowed to stand in a thermostatic chamber at 25° C., and the numbers of living insects and dead insects were examined after 6 days."}, "Spodoptera litura": {"test_system": "Spodoptera litura", "experiment": "Insecticidal test against Spodopteta litura, cabbage leaf pieces immersed", "conditions": "144 h, 1,000 ppm, cabbage leaf pieces immersed 30 seconds, five 2nd instar larvae, 25° C., after 6 days, read-out: mortality rate", "protocol": "Insecticidal Test Against Spodopteta litura\nCabbage (Brassicae oleracea) leaf pieces were immersed in a chemical solution prepared to have a predetermined concentration of the test compound for 30 seconds, air-dried, then placed in a 7 cm polyethylene cup with a filter paper laid thereon, and five 2nd instar larvae of Spodoptera litura were released. The container was allowed to stand in a thermostatic chamber at 25° C., and the numbers of living insects and dead insects were examined after 6 days."}},
  "data": [
    {"smiles": "CCS(=O)(=O)c1c(-c2cn3cnc(C(F)(F)F)cc3n2)nn(C)c1NC(=O)C(F)(F)F", "note": "[compound 1, N-(4-(ethylsulfonyl)-1-methyl-3-(7-(trifluoromethyl)imidazo[1,2-c]pyrimidin-2-yl)-1H-pyrazol-5-yl)-2,2,2-trifluoroacetamide]", "values": [
      {"measurement": "mortality at 100 ppm", "setting": "Nilaparvata lugens [1]", "value": "≥ 50", "unit": "%"},
      {"measurement": "mortality at 100 ppm", "setting": "Myzus persicae [2]", "value": "≥ 50", "unit": "%"},
      {"measurement": "mortality at 100 ppm", "setting": "Sogatella furcifera", "value": "≥ 50", "unit": "%"},
      {"measurement": "mortality at 100 ppm", "setting": "Myzus persicae [3]", "value": "≥ 50", "unit": "%"},
      {"measurement": "mortality at 100 ppm", "setting": "Nilaparvata lugens [4]", "value": "≥ 50", "unit": "%"}
    ]},
    {"smiles": "CCSc1c(-c2nc3cc(C(F)(F)F)ncn3n2)nn(C)c1NC(=O)OC(C)(C)C", "note": "[compound 4, t-butyl (4-(ethylthio)-1-methyl-3-(7-(trifluoromethyl)-[1,2,4]triazolo[1,5-c]pyrimidin-2-yl)-1H-pyrazol-5-yl)carbamate]", "values": [
      {"measurement": "mortality at 100 ppm", "setting": "Nilaparvata lugens [1]", "value": "≥ 50", "unit": "%"}
    ]},
    {"smiles": "CCSc1c(-c2nc3cc(C(F)(F)F)ncn3n2)nn(C)c1N", "note": "[compound 5, 4-(ethylthio)-1-methyl-3-(7-(trifluoromethyl)-[1,2,4]triazolo[1,5-c]pyrimidin-2-yl)-1H-pyrazol-5-amine]", "values": [
      {"measurement": "mortality at 100 ppm", "setting": "Myzus persicae [3]", "value": "≥ 50", "unit": "%"}
    ]},
    {"smiles": "CCSc1c(-c2nc3cc(C(F)(F)F)ncn3n2)nn(C)c1NC(C)=O", "note": "[compound 10, N-(4-(ethylthio)-1-methyl-3-(7-(trifluoromethyl)-[1,2,4]triazolo[1,5-c]pyrimidin-2-yl)-1H-pyrazol-5-yl)acetamide]", "values": [
      {"measurement": "mortality at 100 ppm", "setting": "Nilaparvata lugens [1]", "value": "≥ 50", "unit": "%"}
    ]},
    {"smiles": "CCS(=O)(=O)c1c(-c2nc3cc(C(F)(F)F)ncn3n2)nn(C)c1NC(C)=O", "note": "[compound 11, N-(4-(Ethylsulfonyl)-1-methyl-3-(7-(trifluoromethyl)-[1,2,4]triazolo[1,5-c]pyrimidin-2-yl)-1H-pyrazol-5-yl)acetamide]", "values": [
      {"measurement": "mortality at 100 ppm", "setting": "Nilaparvata lugens [1]", "value": "≥ 50", "unit": "%"},
      {"measurement": "mortality at 100 ppm", "setting": "Sogatella furcifera", "value": "≥ 50", "unit": "%"},
      {"measurement": "mortality at 100 ppm", "setting": "Myzus persicae [3]", "value": "≥ 50", "unit": "%"},
      {"measurement": "mortality at 100 ppm", "setting": "Nilaparvata lugens [4]", "value": "≥ 50", "unit": "%"}
    ]},
    {"smiles": "CCSc1c(-c2cn3cnc(C(F)(F)F)cc3n2)nn(C)c1NC(=O)OC(C)(C)C", "note": "[compound 26, t-butyl(4-(ethylthio)-1-methyl-3-(7-(trifluoromethyl)imidazo[1,2-c]pyrimidin-2-yl)-1H-pyrazol-5-yl)carbamate]", "values": [
      {"measurement": "mortality at 100 ppm", "setting": "Sogatella furcifera", "value": "≥ 50", "unit": "%"}
    ]},
    {"smiles": "CCSc1c(-c2cn3cnc(C(F)(F)F)cc3n2)nn(C)c1NC(=O)C(F)(F)F", "note": "[compound 27]", "values": [
      {"measurement": "mortality at 100 ppm", "setting": "Nilaparvata lugens [1]", "value": "≥ 50", "unit": "%"},
      {"measurement": "mortality at 100 ppm", "setting": "Sogatella furcifera", "value": "≥ 50", "unit": "%"},
      {"measurement": "mortality at 100 ppm", "setting": "Myzus persicae [3]", "value": "≥ 50", "unit": "%"}
    ]},
    {"smiles": "CCSc1c(-c2cn3cnc(C(F)(F)F)cc3n2)nn(C)c1N(C)C(=O)OC(C)(C)C", "note": "[compound 28, t-butyl(4-(ethylthio)-1-methyl-3-(7-(trifluoromethyl)imidazo[1,2-c]pyrimidin-2-yl)-1H-pyrazol-5-yl)(methyl)carbamate]", "values": [
      {"measurement": "mortality at 100 ppm", "setting": "Nilaparvata lugens [1]", "value": "≥ 50", "unit": "%"}
    ]},
    {"smiles": "CCSc1c(-c2cn3cnc(C(F)(F)F)cc3n2)nn(C)c1NC", "note": "[compound 29, 4-(ethylthio)-N,1-dimethyl-3-(7-(trifluoromethyl)imidazo[1,2-c]pyrimidin-2-yl)-1H-pyrazol-5-amine]", "values": [
      {"measurement": "mortality at 100 ppm", "setting": "Nilaparvata lugens [1]", "value": "≥ 50", "unit": "%"},
      {"measurement": "mortality at 100 ppm", "setting": "Sogatella furcifera", "value": "≥ 50", "unit": "%"}
    ]},
    {"smiles": "CCSc1c(-c2cn3cnc(C(F)(F)F)cc3n2)nn(C)c1N(C)C(=O)C(F)(F)F", "note": "[compound 30, N-(4-(ethylthio)-1-methyl-3-(7-(trifluoromethyl)imidazo[1,2-c]pyrimidin-2-yl)-1H-pyrazol-5-yl)-2,2,2-trifluoro-N-methylacetamide]", "values": [
      {"measurement": "mortality at 100 ppm", "setting": "Sogatella furcifera", "value": "≥ 50", "unit": "%"},
      {"measurement": "mortality at 100 ppm", "setting": "Nilaparvata lugens [4]", "value": "≥ 50", "unit": "%"}
    ]},
    {"smiles": "CCSc1c(-c2cn3cnc(C(F)(F)F)cc3n2)nn(C)c1N", "note": "[compound 39, 4-(ethylthio)-1-methyl-3-(7-(trifluoromethyl)imidazo[1,2-c]pyrimidin-2-yl)-1H-pyrazol-5-amine]", "values": [
      {"measurement": "mortality at 100 ppm", "setting": "Nilaparvata lugens [1]", "value": "≥ 50", "unit": "%"},
      {"measurement": "mortality at 100 ppm", "setting": "Sogatella furcifera", "value": "≥ 50", "unit": "%"},
      {"measurement": "mortality at 100 ppm", "setting": "Myzus persicae [3]", "value": "≥ 50", "unit": "%"},
      {"measurement": "mortality at 100 ppm", "setting": "Nilaparvata lugens [4]", "value": "≥ 50", "unit": "%"}
    ]},
    {"smiles": "CCS(=O)(=O)c1c(-c2nc3cc(C(F)(F)F)ncn3c2Cl)nn(C)c1NC(=O)C(F)(F)F", "note": "[compound 53, N-(3-(3-chloro-7-(trifluoromethyl)imidazo[1,2-c]pyrimidin-2-yl)-4-(ethylsulfonyl)-1-methyl-1H-pyrazol-5-yl)-2,2,2-trifluoroacetamide]", "values": [
      {"measurement": "mortality at 100 ppm", "setting": "Nilaparvata lugens [1]", "value": "≥ 50", "unit": "%"},
      {"measurement": "mortality at 100 ppm", "setting": "Sogatella furcifera", "value": "≥ 50", "unit": "%"},
      {"measurement": "mortality at 100 ppm", "setting": "Myzus persicae [3]", "value": "≥ 50", "unit": "%"},
      {"measurement": "mortality at 100 ppm", "setting": "Nilaparvata lugens [4]", "value": "≥ 50", "unit": "%"}
    ]},
    {"smiles": "CCS(=O)(=O)c1c(-c2nc3cc(C(F)(F)F)ncn3c2Br)nn(C)c1NC(=O)C(F)(F)F", "note": "[compound 54, N-(3-(3-bromo-7-(trifluoromethyl)imidazo[1,2-c]pyrimidin-2-yl)-4-(ethylsulfonyl)-1-methyl-1H-pyrazol-5-yl)-2,2,2-trifluoroacetamide]", "values": [
      {"measurement": "mortality at 100 ppm", "setting": "Nilaparvata lugens [1]", "value": "≥ 50", "unit": "%"},
      {"measurement": "mortality at 100 ppm", "setting": "Sogatella furcifera", "value": "≥ 50", "unit": "%"},
      {"measurement": "mortality at 100 ppm", "setting": "Myzus persicae [3]", "value": "≥ 50", "unit": "%"},
      {"measurement": "mortality at 100 ppm", "setting": "Nilaparvata lugens [4]", "value": "≥ 50", "unit": "%"}
    ]},
    {"smiles": "CCSc1c(-c2cn3cnc(C(F)(F)F)cc3n2)nn(C)c1NC(=O)c1ccccn1", "note": "[compound 84, N-(4-(ethylthio)-1-methyl-3-(7-(trifluoromethyl)imidazo[1,2-c]pyrimidin-2-yl)-1H-pyrazol-5-yl)picolinamide]", "values": [
      {"measurement": "mortality at 100 ppm", "setting": "Nilaparvata lugens [1]", "value": "≥ 50", "unit": "%"},
      {"measurement": "mortality at 1000 ppm", "setting": "Spodoptera litura", "value": "≥ 50", "unit": "%"}
    ]},
    {"smiles": "CCS(=O)(=O)c1c(-c2cn3cnc(C(F)(F)F)cc3n2)nn(C)c1NC(=O)c1ccccn1", "note": "[compound 86, N-(4-(ethylsulfonyl)-1-methyl-3-(7-(trifluoromethyl)imidazo[1,2-c]pyrimidin-2-yl)-1H-pyrazol-5-yl)picolinamide]", "values": [
      {"measurement": "mortality at 100 ppm", "setting": "Nilaparvata lugens [1]", "value": "≥ 50", "unit": "%"},
      {"measurement": "mortality at 1000 ppm", "setting": "Spodoptera litura", "value": "≥ 50", "unit": "%"},
      {"measurement": "mortality at 100 ppm", "setting": "Myzus persicae [3]", "value": "≥ 50", "unit": "%"}
    ]},
    {"smiles": "CCS(=O)(=O)c1c(-c2cn3cnc(C(F)(F)F)cc3n2)nn(C)c1N", "note": "[compound 100, 4-(ethylsulfonyl)-1-methyl-3-(7-(trifluoromethyl)imidazo[1,2-c]pyrimidin-2-yl)-1H-pyrazol-5-amine]", "values": [
      {"measurement": "mortality at 100 ppm", "setting": "Nilaparvata lugens [1]", "value": "≥ 50", "unit": "%"},
      {"measurement": "mortality at 100 ppm", "setting": "Sogatella furcifera", "value": "≥ 50", "unit": "%"},
      {"measurement": "mortality at 100 ppm", "setting": "Myzus persicae [3]", "value": "≥ 50", "unit": "%"},
      {"measurement": "mortality at 100 ppm", "setting": "Nilaparvata lugens [4]", "value": "≥ 50", "unit": "%"}
    ]}
  ]
}
